Like-named read-outs stand apart in the source and are kept apart here.
Legend:
Type in all cases: in vivo
[1] = system: morningglory (Ipomoea spp.); experiment: Test A pre-/postemergence: morningglory; details: Ipomoea, 240 h; for pest or weed control at 125 g/ha: 125 g ai/ha; for pest or weed control at 500 g/ha: 500 g ai/ha
Outline: (§1)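 Seeds were sown in loam/sand blend and sprayed preemergence (directed soil spray) and, simultaneously, postemergence at 2–10 cm, one- to two-leaf stage, using compounds in non-phytotoxic solvent with surfactant. After ~10 days in greenhouse, injury was rated visually versus untreated controls, 0 (no effect) to 100 (complete control).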

wild oat (Avena fatua) = experiment: Test C pre-/postemergence: wild oat
Outline: (§2)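 Preemergence on seeds in loam/sand, postemergence on 2–18 cm (1–4-leaf) plants in peat-based medium; compounds in non-phytotoxic solvent with surfactant. After 13–15 days in greenhouse, visual rating versus controls, 0 (no effect) to 100 (complete control).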

[2] = system: crabgrass, large (large crabgrass, Digitaria sanguinalis); experiment: Test A pre-/postemergence: crabgrass, large; details: Digitaria sanguinalis, 240 h; for pest or weed control at 125 g/ha: 125 g ai/ha; for pest or weed control at 500 g/ha: 500 g ai/ha
Outline: as §1

[3] = system: nutsedge, yellow (yellow nutsedge, Cyperus esculentus); experiment: Test C pre-/postemergence: nutsedge, yellow
Outline: as §2

[4] = system: barnyardgrass (Echinochloa crus-galli); experiment: Test A pre-/postemergence: barnyardgrass; details: Echinochloa crus-galli, 240 h; for pest or weed control at 125 g/ha: 125 g ai/ha; for pest or weed control at 500 g/ha: 500 g ai/ha
Outline: as §1

[5] = system: ryegrass, Italian (Italian ryegrass, Lolium multiflorum); experiment: Test C pre-/postemergence: ryegrass, Italian
Outline: as §2

[6] = system: foxtail, giant (giant foxtail, Setaria faberii); experiment: Test A pre-/postemergence: foxtail, giant; details: Setaria faberi, 240 h; for pest or weed control at 125 g/ha: 125 g ai/ha; for pest or weed control at 500 g/ha: 500 g ai/ha
Outline: as §1

[7] = system: velvetleaf (Abutilon theophrasti); experiment: Test A pre-/postemergence: velvetleaf; details: Abutilon theophrasti, 240 h; for pest or weed control at 125 g/ha: 125 g ai/ha; for pest or weed control at 500 g/ha: 500 g ai/ha
Outline: as §1

[8] = system: chickweed (common chickweed, Stellaria media); experiment: Test C postemergence: chickweed
Outline: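 Crop and weed plants were grown in peat-vermiculite medium and treated postemergence at the 1- to 4-leaf stage (2-18 cm tall). After 13-15 days in a greenhouse, each species was rated visually against untreated controls on a 0-100 scale (0 no effect, 100 complete control).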

[9] = system: large crabgrass (Digitaria sanguinalis); experiment: Test C pre-/postemergence: large crabgrass
Outline: as §2

[10] = system: galium (catchweed bedstraw, Galium aparine); experiment: Test C pre-/postemergence: galium
Outline: as §2

[11] = Postemergence, 16 g ai/ha, scale 0 to 100, 0 no effect, 100 complete control
[12] = Postemergence, 31 g ai/ha, scale 0 to 100 (0 no effect, 100 complete control)
[13] = Postemergence, 62 g ai/ha, scale 0 to 100 (0 no effect, 100 complete control)
[14] = Postemergence, 125 g ai/ha, scale 0 to 100, 0 no effect, 100 complete control
[15] = Preemergence, 16 g ai/ha, scale 0 (no effect) to 100 (complete control)
[16] = Preemergence, 31 g ai/ha, scale of 0 to 100, 0 is no effect, 100 is complete control
[17] = Preemergence, 62 g ai/ha, scale of 0 to 100, 0 is no effect, 100 is complete control
[18] = Preemergence, 125 g ai/ha, scale 0 to 100, 0 no effect, 100 complete control

## COc1nn(-c2ccc(C(F)(F)F)cc2)nc1Cc1ccnc(C(F)(F)F)c1 [Compound 15, 4-[[5-methoxy-2-[4-(trifluoromethyl)phenyl]-2H-1,2,3-triazol-4-yl]methyl]-2-(trifluoromethyl)pyridine]
[1]; post-emergence, Postemergence, 0 to 100 scale, 0 is no effect, 100 is complete control, read-out: Morningglory plant response rating
  pest or weed control at 125 g/ha: 100%
[1]; post-emergence, Postemergence, visual rating on 0 to 100 scale (0 no effect, 100 complete control), approximately ten days, read-out: Morningglory plant response rating
  pest or weed control at 500 g/ha: 100%
[1]; pre-emergence, Preemergence, 0 to 100 scale (0 no effect, 100 complete control), read-out: Plant response rating, Morningglory
  pest or weed control at 125 g/ha: 60%
[1]; pre-emergence, Preemergence, 0 to 100 scale, 0 is no effect, 100 is complete control, read-out: Plant response rating, Morningglory
  pest or weed control at 500 g/ha: 80%
Wild oat (Avena fatua); [11]
  Plant response rating, Oat, Wild: 40
Wild oat (Avena fatua); [12]
  Plant response rating, Oat, Wild: 45
Wild oat (Avena fatua); [13]
  Plant response rating, Oat, Wild: 55
Wild oat (Avena fatua); [14]
  Plant response rating, Oat, Wild: 60
Wild oat (Avena fatua); [15]
  Plant response rating, Oat, Wild: 35
Wild oat (Avena fatua); [16]
  Plant response rating, Oat, Wild: 40
Wild oat (Avena fatua); [17]
  Plant response rating, Oat, Wild: 70
Wild oat (Avena fatua); [18]
  Plant response rating, Oat, Wild: 70
[2]; post-emergence, Postemergence, 0 to 100 scale, 0 is no effect, 100 is complete control, read-out: Crabgrass, Large plant response rating
  pest or weed control at 125 g/ha: 90%
[2]; post-emergence, Postemergence, visual rating on 0 to 100 scale (0 no effect, 100 complete control), approximately ten days, read-out: Crabgrass, Large plant response rating
  pest or weed control at 500 g/ha: 90%
[2]; pre-emergence, Preemergence, 0 to 100 scale (0 no effect, 100 complete control), read-out: Plant response rating, Crabgrass, Large
  pest or weed control at 125 g/ha: 100%
[2]; pre-emergence, Preemergence, 0 to 100 scale, 0 is no effect, 100 is complete control, read-out: Plant response rating, Crabgrass, Large
  pest or weed control at 500 g/ha: 100%
[3]; [11]
  Plant response rating, Nutsedge, Yellow: 0
[3]; [12]
  Plant response rating, Nutsedge, Yellow: 0
[3]; [13]
  Plant response rating, Nutsedge, Yellow: 0
[3]; [14]
  Plant response rating, Nutsedge, Yellow: 0
[3]; [15]
  Plant response rating, Nutsedge, Yellow: 0
[3]; [16]
  Plant response rating, Nutsedge, Yellow: 0
[3]; [17]
  Plant response rating, Nutsedge, Yellow: 0
[3]; [18]
  Plant response rating, Nutsedge, Yellow: 10
[4]; post-emergence, Postemergence, 0 to 100 scale, 0 is no effect, 100 is complete control, read-out: Barnyardgrass plant response rating
  pest or weed control at 125 g/ha: 90%
[4]; post-emergence, Postemergence, visual rating on 0 to 100 scale (0 no effect, 100 complete control), approximately ten days, read-out: Barnyardgrass plant response rating
  pest or weed control at 500 g/ha: 90%
[4]; pre-emergence, Preemergence, 0 to 100 scale (0 no effect, 100 complete control), read-out: Plant response rating, Barnyardgrass
  pest or weed control at 125 g/ha: 100%
[4]; pre-emergence, Preemergence, 0 to 100 scale, 0 is no effect, 100 is complete control, read-out: Plant response rating, Barnyardgrass
  pest or weed control at 500 g/ha: 100%
[5]; [11]
  Plant response rating, Ryegrass, Italian: 10
[5]; [12]
  Plant response rating, Ryegrass, Italian: 30
[5]; [13]
  Plant response rating, Ryegrass, Italian: 45
[5]; [14]
  Plant response rating, Ryegrass, Italian: 60
[5]; [15]
  Plant response rating, Ryegrass, Italian: 10
[5]; [16]
  Plant response rating, Ryegrass, Italian: 40
[5]; [17]
  Plant response rating, Ryegrass, Italian: 45
[5]; [18]
  Plant response rating, Ryegrass, Italian: 80
[6]; post-emergence, Postemergence, 0 to 100 scale, 0 is no effect, 100 is complete control, read-out: Foxtail, Giant plant response rating
  pest or weed control at 125 g/ha: 90%
[6]; post-emergence, Postemergence, visual rating on 0 to 100 scale (0 no effect, 100 complete control), approximately ten days, read-out: Foxtail, Giant plant response rating
  pest or weed control at 500 g/ha: 90%
[6]; pre-emergence, Preemergence, 0 to 100 scale (0 no effect, 100 complete control), read-out: Plant response rating, Foxtail, Giant
  pest or weed control at 125 g/ha: 100%
[6]; pre-emergence, Preemergence, 0 to 100 scale, 0 is no effect, 100 is complete control, read-out: Plant response rating, Foxtail, Giant
  pest or weed control at 500 g/ha: 100%
[7]; post-emergence, Postemergence, 0 to 100 scale, 0 is no effect, 100 is complete control, read-out: Velvetleaf plant response rating
  pest or weed control at 125 g/ha: 100%
[7]; post-emergence, Postemergence, visual rating on 0 to 100 scale (0 no effect, 100 complete control), approximately ten days, read-out: Velvetleaf plant response rating
  pest or weed control at 500 g/ha: 100%
[7]; pre-emergence, Preemergence, 0 to 100 scale (0 no effect, 100 complete control), read-out: Plant response rating, Velvetleaf
  pest or weed control at 125 g/ha: 70%
[7]; pre-emergence, Preemergence, 0 to 100 scale, 0 is no effect, 100 is complete control, read-out: Plant response rating, Velvetleaf
  pest or weed control at 500 g/ha: 80%
[8]; 16 g ai/ha, scale 0 to 100, 0 no effect, 100 complete control
  Plant response rating, Chickweed: 55
[8]; 31 g ai/ha, scale 0 to 100 (0 no effect, 100 complete control)
  Plant response rating, Chickweed: 55
[8]; 62 g ai/ha, scale 0 to 100 (0 no effect, 100 complete control)
  Plant response rating, Chickweed: 70
[8]; 125 g ai/ha, scale 0 to 100, 0 no effect, 100 complete control
  Plant response rating, Chickweed: 75
[9]; [11]
  Plant response rating, Crabgrass, Large: 5
[9]; [12]
  Plant response rating, Crabgrass, Large: 15
[9]; [13]
  Plant response rating, Crabgrass, Large: 45
[9]; [14]
  Plant response rating, Crabgrass, Large: 60
[9]; [15]
  Plant response rating, Crabgrass, Large: 98
[9]; [16]
  Plant response rating, Crabgrass, Large: 100
[9]; [17]
  Plant response rating, Crabgrass, Large: 100
[9]; [18]
  Plant response rating, Crabgrass, Large: 100
[10]; [11]
  Plant response rating, Galium: 50
[10]; [12]
  Plant response rating, Galium: 55
[10]; [13]
  Plant response rating, Galium: 55
[10]; [14]
  Plant response rating, Galium: 80
[10]; [15]
  Plant response rating, Galium: 50
[10]; [16]
  Plant response rating, Galium: 75
[10]; [17]
  Plant response rating, Galium: 95
[10]; [18]
  Plant response rating, Galium: 98

— US9302999B2, “Substituted triazoles as herbicides” (E. I. DU PONT DE NEMOURS AND COMPANY, priority 2012, dated 2016)
